# Source: paper PMC5268383, “Inhibition of STAT3 by Anticancer Drug Bendamustine” (PLoS ONE, 2017)
# Legend:
# [1] = biological target: T1, cellular STAT3 in MDA-MB-468 cells (Homo sapiens, UniProt P40763); test: Pull-down assay using Bio-BENDA, anti-STAT3 immunoprecipitation; assay type: cell-based; details: 50 μM Bio-BENDA plus excess free drug, 4 h
# T1 construct: endogenous in cells; host or cells: MDA-MB-468
# Experimental: MDA-MB-468 cells were treated with biotinylated BENDA (Bio-BENDA) in the presence or absence of an excess amount of free drugs for 4 h and then lysed in PhosphoSafe™ Extraction Reagent (Merck, Darmstadt, Germany). Lysate (200 μL) was precleared with a mixture of Protein G Plus/Protein A Agarose Suspension (EMD Millipore, Billerica, MA, USA) for 1 h at 4°C and protein A and G agarose were removed by centrifugation at 13,000 rpm for 10 min. The lysate (200 μL) was immunoprecipitated with STAT3 antibody (1 μL) overnight at 4°C on a shaker and the immunocomplex was captured by the addition of a Protein G Plus/Protein A Agarose Suspension (30 μL) slurry for 1 h at 4°C. Samples were washed five times with lysis buffer and then boiled four times in SDS-PAGE sample buffer and run on an SDS-PAGE gel. The protein was transferred to a nitrocellulose membrane. The membranes were blocked in 5% skim milk in TBS/0.1% Tween 20. They were then incubated with streptavidin-HRP diluted at 1:2000 in 1.5% skim milk in TBS (pH7.4)/0.1% Tween 20 overnight at 4°C. Immunoblots were developed by using a chemiluminescent substrate.
# rhSTAT3 = biological target: T2, rhSTAT3 (Homo sapiens, UniProt P40763); test: Competition assay with cysteine-blocking reagent Alexa Fluor 488 C5 maleimide; assay type: binding; details: 50 or 100 μM compound, 2 h
# T2 construct: Full-length cDNAs were obtained from a human cDNA library by PCR; Avi-tag (biotinylated in BirA-BL21) (N); made in house; host or cells: Escherichia coli BirA-BL21
# T2 sequence (P40763 whole entry): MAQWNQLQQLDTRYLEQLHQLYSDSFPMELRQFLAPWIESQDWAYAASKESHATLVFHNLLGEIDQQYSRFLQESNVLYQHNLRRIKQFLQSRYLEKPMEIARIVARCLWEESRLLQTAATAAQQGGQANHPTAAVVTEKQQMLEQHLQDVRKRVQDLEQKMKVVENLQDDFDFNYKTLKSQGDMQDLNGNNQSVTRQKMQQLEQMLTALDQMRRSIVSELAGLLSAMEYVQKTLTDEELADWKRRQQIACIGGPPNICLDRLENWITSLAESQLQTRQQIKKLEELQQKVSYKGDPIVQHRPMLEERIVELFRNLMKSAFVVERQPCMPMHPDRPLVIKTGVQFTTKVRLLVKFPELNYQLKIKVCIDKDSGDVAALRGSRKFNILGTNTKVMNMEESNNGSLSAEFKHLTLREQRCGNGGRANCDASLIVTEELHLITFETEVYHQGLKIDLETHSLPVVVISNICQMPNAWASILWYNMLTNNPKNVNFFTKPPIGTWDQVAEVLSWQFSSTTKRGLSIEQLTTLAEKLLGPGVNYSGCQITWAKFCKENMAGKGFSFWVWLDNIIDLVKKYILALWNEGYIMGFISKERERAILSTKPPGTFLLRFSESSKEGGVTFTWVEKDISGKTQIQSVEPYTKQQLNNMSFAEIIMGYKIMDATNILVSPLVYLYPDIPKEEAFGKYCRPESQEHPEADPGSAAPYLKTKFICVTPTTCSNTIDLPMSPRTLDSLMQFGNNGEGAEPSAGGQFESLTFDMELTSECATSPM
# Experimental: rhSTAT3 (0.89 μM) in 100 mM HEPES was incubated with 10 μM Alexa Fluor 488 C5 maleimide (Invitrogen, Paisley, UK), a thiol-reactive probe, in the presence or absence of 50 or 100 μM BENDA or HP2 for 2 h at room temperature. Samples were diluted in SDS-PAGE sample buffer without boiling or 2-mercaptoethanol and run on an SDS-PAGE gel. The protein was transferred to a nitrocellulose membrane and then blotted with Ni-HRP. The Alexa-labeled rhSTAT3 was analyzed by fluorescence (excitation/emission: 493/516 nm) and western blotting with Ni-HRP.
# [2] = biological target: T3, nuclear STAT3 of MDA-MB-468 cells (Homo sapiens, UniProt P40763); test: STAT3 DNA binding assay (TransAM ELISA); assay type: cell-based; details: MDA-MB-468, 24 h; BENDA 25, 50, 100 μM, HP2 100 μM
# T3 construct: endogenous in cells; host or cells: MDA-MB-468
# T3 sequence (P40763 2-770 limits assumed): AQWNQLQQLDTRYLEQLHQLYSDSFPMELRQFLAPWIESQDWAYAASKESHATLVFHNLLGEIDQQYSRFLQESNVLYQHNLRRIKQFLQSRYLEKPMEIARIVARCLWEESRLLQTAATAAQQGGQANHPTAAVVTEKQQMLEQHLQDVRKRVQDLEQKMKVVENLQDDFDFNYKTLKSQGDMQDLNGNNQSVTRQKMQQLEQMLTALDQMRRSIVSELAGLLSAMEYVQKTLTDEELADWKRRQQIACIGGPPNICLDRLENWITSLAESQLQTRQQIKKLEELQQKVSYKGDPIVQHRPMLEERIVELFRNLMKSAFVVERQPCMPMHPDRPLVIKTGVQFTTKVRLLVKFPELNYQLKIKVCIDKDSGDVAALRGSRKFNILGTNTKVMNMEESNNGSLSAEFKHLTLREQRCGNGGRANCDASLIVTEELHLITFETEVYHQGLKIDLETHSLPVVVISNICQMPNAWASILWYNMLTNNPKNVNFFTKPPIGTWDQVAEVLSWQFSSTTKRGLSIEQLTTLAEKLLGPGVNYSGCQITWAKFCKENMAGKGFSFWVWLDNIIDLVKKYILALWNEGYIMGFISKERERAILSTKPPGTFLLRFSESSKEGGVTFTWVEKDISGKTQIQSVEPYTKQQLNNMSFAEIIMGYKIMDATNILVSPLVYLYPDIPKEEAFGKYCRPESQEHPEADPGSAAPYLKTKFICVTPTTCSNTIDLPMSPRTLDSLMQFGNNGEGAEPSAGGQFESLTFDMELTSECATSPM
# Experimental: The DNA-binding activity of STAT3 was evaluated with a TransAM ELISA kit (Active Motif, Carlsbad, CA, USA). The assay and nuclear extract preparation were performed according to the manufacturer’s instructions. Heat-denatured nuclear extract was used as a negative control. The nuclear extract (20 μg) was added to each well of a 96-well microtiter plate coated with immobilized oligonucleotides containing the STAT3 consensus binding site and incubated at room temperature for 1 h. They were incubated with anti-STAT3 antibody for 1 h at room temperature, followed by HRP-conjugated antibody for 1 h at room temperature. The developing solution was added, the reaction was terminated by the addition of stop solution, and the absorbance was measured at 450 nm with a reference wavelength of 655 nm (SpectraMax M5SK, Molecular Devices, Sunnyvale, CA, USA).
# [3] = system: MDA-MB-453 cells (low P-STAT3); test: WST cell proliferation assay, MDA-MB-453; assay type: cell-based, human; details: 0.1-100 μM, 48 h, WST-8
# Experimental: (§1) Cells were plated in a 96-well tissue culture plate (1000 cells per well) and incubated for 48 h. After incubation, the cells were treated with vehicle, 0.1–100 μM BENDA, or HP2 for 48 h. Samples were assayed in triplicate. After incubation, WST-8 solution (10 μL; Dojindo Molecular Technologies, Rockville, MD, USA) was added to each well and incubated at 37°C for 4 h, and the absorbance was read at 450 nm.
# [4] = biological target: T4, STAT3-DNA complex (c-myc promoter) in MDA-MB-468 cells (Homo sapiens, UniProt P40763); test: ChIP assay, c-myc promoter binding by STAT3; assay type: cell-based; details: MDA-MB-468, 8 h; BENDA 25, 50, 100 μM, HP2 50, 100 μM
# T4 construct: endogenous in cells; host or cells: MDA-MB-468
# T4 sequence (P40763 2-770 limits assumed, one chain of several): as the sequence (P40763 2-770 limits assumed) above
# Experimental: A ChIP assay was performed with an ExactaChIP Human/Mouse STAT3 ChIP kit (R&D Systems, Minneapolis, MN, USA). MDA-MB-468 cancer cells were fixed with 1% formaldehyde and treated with the lysis buffer. After sonication, anti-STAT3 antibody or normal mouse IgG was added to the extract, followed by precipitation with Protein G Plus/Protein A Agarose Suspension. The eluted DNA fraction was used for PCR with human c-myc primers.
# [5] = biological target: T5, recombinant human STAT3 SH2 domain (Homo sapiens, UniProt P40763); test: AlphaScreen SH2 binding assay, STAT3; details: AlphaScreen, 50 nM protein, FITC-GpYLPQTV; read-out: IC50, inhibition of STAT3-SH2 binding to phosphotyrosine peptide
# T5 construct: Full-length cDNAs were obtained from a human cDNA library by PCR; Avi-tag (biotinylated in BirA-BL21) (N); made in house; host or cells: Escherichia coli BirA-BL21
# T5 sequence (P40763 whole entry, the tested form may be a part): as the sequence (P40763 whole entry) above
# Experimental: AlphaScreen assays were performed in a final reaction volume of 25 μL of the assay buffer, containing 10 mM HEPES-NaOH (pH 7.4), 50 mM NaCl, 1 mM EDTA (pH 8.0), 0.1% NP-40, and 10 ng/mL BSA in a 96-well microtiter plate at 25°C. The labeled Phospho-Tyr (pTyr) peptide probe was 5-carboxyfluorescein (FITC)-GpYLPQTV for STAT3, FITC-GpYDKPHVL for STAT1, and FITC-PSpYVNVQN for Grb2. A DMSO solution of BENDA was incubated with 50 nM of each SH2-containing protein for 15 min, 50 nM of the corresponding FITC-pTyr peptide was added, and the mixture was incubated for 90 min. Streptavidin-coated donor beads and anti-FITC acceptor beads were added and incubated for 90 min before the signals were measured with an Envision Xcite plate reader (PerkinElmer Life Sciences, Waltham, MA, USA).
# [6] = biological target: T6, STAT3-CFP / STAT3-YFP in HEK293 cells (Homo sapiens, UniProt P40763); test: FRET assay of STAT3 dimerization; assay type: cell-based; details: HEK293, 10, 20 or 50 μM, pretreatment before 50 ng/mL IL-6 stimulation
# T6 construct: expressed in transfected cells; host or cells: HEK293
# T6 sequence (P40763 whole entry): as above
# Experimental: The expression vectors for the fusion proteins STAT3-CFP and STAT3-YFP were prepared by the addition of STAT3 cDNA to pAmCyan1-N1 and pZsyellow1-N1. The vector mixture (1:1) was transfected into HEK293 cells with Lipofectamine 2000. The cells were cultured with 2% FBS DMEM for 48 h in a 96-well microtiter plate, treated with 0, 10, 20, or 50 μM BENDA or HP2 in a final DMSO concentration of 0.2% for 24 h, and then stimulated with 50 ng/mL IL-6 for a further 1 h. Fluorescence signals were measured (SpectraMax M5SK). The signals measured by FRET (excitation/emission: 436/528 nm) were corrected for crosstalk signals from cyan (excitation/emission: 436/488 nm) and yellow (excitation/emission: 517/528 nm).
# [7] = system: MDA-MB-468 cells (high P-STAT3); test: WST cell proliferation assay, MDA-MB-468; assay type: cell-based, human; details: 0.1-100 μM, 48 h, WST-8
# Experimental: as §1
# T1 sequence (P40763 2-770 limits assumed): as the sequence (P40763 2-770 limits assumed) above
smiles,measurement,setting,value
"Cn1c(CCCC(=O)O)nc2cc(N(CCO)CCO)ccc21 [HP2, dihydroxy bendamustine]",Competition of Bio-BENDA STAT3 band intensity by excess free drug,[1],no reduction
same,Effect on fluorescence intensity of Alexa-labeled rhSTAT3,rhSTAT3,hardly observed
same,Inhibition of STAT3 binding to oligonucleotides containing STAT3 consensus binding site,[2],did not
same,Inhibition of proliferation of MDA-MB-453 cells,[3],did not inhibit proliferation
same,Amplified c-myc promoter band in STAT3 ChIP,[4],clearly detected
same,IC50,[5],> 100 µM
same,Effect on FRET signals (STAT3 dimerization),[6],unchanged
same,Inhibition of proliferation of MDA-MB-468 cells,[7],did not inhibit proliferation
